pIC50: −log10 of the molar value.
Target: T1, mouse NPY-Y5 receptors (mNPY-Y5) (Mus musculus, UniProt O70342)
T1 construct: The full-length cDNA which contains the mouse NPY-Y5 (mNPY-Y5) receptor coding was amplified from mouse brain cDNA; expressed in transfected cells
T1 sequence (O70342 1-466): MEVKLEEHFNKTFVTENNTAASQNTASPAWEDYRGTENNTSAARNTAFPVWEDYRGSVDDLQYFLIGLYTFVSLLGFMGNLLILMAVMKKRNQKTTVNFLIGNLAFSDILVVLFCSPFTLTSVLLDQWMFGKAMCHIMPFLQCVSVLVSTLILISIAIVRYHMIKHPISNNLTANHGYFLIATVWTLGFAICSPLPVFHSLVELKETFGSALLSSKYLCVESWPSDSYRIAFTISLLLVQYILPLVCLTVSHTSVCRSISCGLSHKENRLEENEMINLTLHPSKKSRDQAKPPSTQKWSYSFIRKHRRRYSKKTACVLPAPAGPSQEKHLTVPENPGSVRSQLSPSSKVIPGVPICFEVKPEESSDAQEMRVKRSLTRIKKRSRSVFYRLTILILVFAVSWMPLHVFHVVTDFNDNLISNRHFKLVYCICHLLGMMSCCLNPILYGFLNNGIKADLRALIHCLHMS
Test: Radioligand competition binding (125I-PYY) on membranes of HEK293 cells expressing recombinant mouse NPY-Y5 receptor
Details: displacement of 100 pM 125I-labeled PYY, 1 h at 22° C., read-out: NPY5 IC50
Text: The full-length cDNA which contains the mouse NPY-Y5 (mNPY-Y5) receptor coding was amplified from mouse brain cDNA using specific primers, which were custom-made on the basis of published sequences, and employing Pfu DNA polymerase (Stratagene). The amplification product was subcloned into a mammalian expression vector pcDNA3 using EcoRI and XhoI restriction sites. Positive clones were sequenced; one clone, which contained the published sequence, was selected for preparing stable cell clones.
Human embryonic kidney 293 (HEK293) cells were transfected with 10 μg of mNPY5 DNA using Lipofectamine reagent (Gibco BRL) in accordance with the manufacturer's instructions. Two days after the transfection, the geneticin selection (1 mg/ml) was initiated and several stable clones were isolated. One of the clones was used for further pharmacological characterization.
Human embryonic kidney cells (HEK293) which express recombinant mouse NPY-Y5 receptors (mNPY-Y5) were disrupted by being frozen/thawed three times in hypotonic Tris buffer (5 mM, pH 7.4, 1 mM MgCl2), after which they were homogenized and centrifuged at 72 000 G for 15 minutes. The precipitate was washed twice with Tris buffer (pH 7.4) containing 25 mM MgCl2, 250 mM sucrose, 0.1 mM phenylmethylsulfonyl fluoride and 0.1 mM 1,10-phenanthroline, then resuspended in the same buffer and stored in aliquots at −80° C. The protein was determined by the Lowry method using bovine serum albumin (BSA) as the standard.
The competition binding analysis was carried out in 250 μl of 25 mM Hepes buffer (pH 7.4, 2.5 mM CaCl2, 1 mM MgCl2, 1% bovine serum albumin and 0.01% sodium azide) which 5 μg of protein, 100 pM ^125I-labeled peptide YY (PYY) and 10 μl of a DMSO solution containing increasing quantities of DMSO solution containing unlabeled test compound. After a one-hour incubation at 22° C., the bound ligand was separated from the unbound ligand by means of filtration through a glass fiber filter. Nonspecific binding was determined in the presence of 1 μM unlabeled PYY. Specific binding is defined as the difference between total binding and nonspecific binding. An IC50 value is defined as the concentration of the antagonist which displaces 50% of the ^125I-labeled […]. This concentration is determined by linear regression analysis following logit/log transformation of the binding values.

Structure (SMILES) | pIC50
CCn1c2ccccc2c2cc(NC(=O)C3CC(=O)N(c4ccccc4)C3)ccc21 (racemic) [rac. N-(9-Ethyl-9H-carbazol-3-yl)-5-oxo-1-phenylpyrrolidine-3-carboxamide] | 7.68
CCN(c1ccc(NC(=O)C2CC(=O)N(c3ccccc3C(C)C)C2)cc1)c1nc(C)cc(C)n1 (racemic) [rac. N-{4-[(4,6-Dimethylpyrimidin-2-yl)ethylamino]phenyl}-1-(2-isopropylphenyl)-5-oxopyrrolidine-3-carboxamide] | 7.34
CCn1c2ccccc2c2cc(NC(=O)C3CC(=O)N(c4cccc(F)c4)C3)ccc21 (racemic) [rac. N-(9-Ethyl-9H-carbazol-3-yl)-1-(3-fluorophenyl)-5-oxopyrrolidine-3-carboxamide] | 7.52
CCn1c2ccccc2c2cc(NC(=O)C3CC(=O)N(c4ccc(C(C)C)cc4)C3)ccc21 (racemic) [rac. N-(9-Ethyl-9H-carbazol-3-yl)-1-(4-isopropylphenyl)-5-oxopyrrolidine-3-carboxamide] | 7.52
CCn1c2ccccc2c2cc(NC(=O)C3CC(=O)N(C4Cc5ccccc5C4)C3)ccc21 (racemic) [rac. N-(9-Ethyl-9H-carbazol-3-yl)-1-indan-2-yl-5-oxopyrrolidine-3-carboxamide] | 7.49
Cc1ccc(N2CC(C(=O)Nc3ccc(Nc4nc(C)cc(C)n4)cc3)CC2=O)cc1 (racemic) [rac. N-[4-(4,6-Dimethylpyrimidin-2-ylamino)phenyl]-5-oxo-1-p-tolylpyrrolidine-3-carboxamide] | 7.49
Cc1cc(C)nc(Nc2ccc(NC(=O)C3CC(=O)N(c4ccccc4C(C)C)C3)cc2)n1 (racemic) [rac. N-[4-(4,6-Dimethylpyrimidin-2-ylamino)phenyl]-1-(2-isopropylphenyl)-5-oxopyrrolidine-3-carboxamide] | 7.60
Cc1ccc(C)c(N2CC(C(=O)Nc3ccc(Nc4ccccc4)cc3)CC2=O)c1 (racemic) [rac. N-(4-Phenylaminophenyl)-1-(2,5-dimethylphenyl)-5-oxopyrrolidine-3-carboxamide] | 7.52
Cc1ccc(C)c(N2CC(C(=O)Nc3ccc(N(c4ccccc4)C(C)C)cc3)CC2=O)c1 (racemic) [rac. N-[4-(Isopropylphenylamino)phenyl]-1-(2,5-dimethylphenyl)-5-oxopyrrolidine-3-carboxamide] | 7.66
Cc1cc(C)nc(N(C)c2ccc(NC(=O)C3CC(=O)N(c4ccccc4C(C)C)C3)cc2)n1 (racemic) [rac. N-{4-[(4,6-Dimethylpyrimidin-2-yl)methylamino]phenyl}-1-(2-isopropylphenyl)-5-oxopyrrolidine-3-carboxamide] | 7.51
Cc1ccc(N2CC(C(=O)Nc3ccc(N(C)c4nc(C)cc(C)n4)cc3)CC2=O)cc1 (racemic) [rac. N-{4-[(4,6-Dimethylpyrimidin-2-yl)methylamino]phenyl}-5-oxo-1-p-tolylpyrrolidine-3-carboxamide] | 7.66
CC(C)c1ccccc1N1CC(C(=O)Nc2ccc(Nc3ccccc3)cc2)CC1=O (racemic) [rac. N-(4-Phenylaminophenyl)-1-(2-isopropylphenyl)-5-oxopyrrolidine-3-carboxamide] | 7.39
Cc1ccc(C)c(N2CC(C(=O)Nc3ccc(C(C)C)cc3)CC2=O)c1 (racemic) [rac. N-(4-Isopropylphenyl)-1-(2,5-dimethylphenyl)-5-oxopyrrolidine-3-carboxamide] | 7.35
CCOC(=O)CN(c1ccccc1)c1ccc(NC(=O)C2CC(=O)N(c3cc(OC)ccc3C)C2)cc1 (racemic) [rac. Ethyl [(4-{[1-(5-methoxy-2-methylphenyl)-5-oxopyrrolidine-3-carbonyl]amino}phenyl)phenylamino]acetate] | 7.34
CCn1c2ccccc2c2cc(NC(=O)C3CC(=O)N(Cc4ccccc4)C3)ccc21 (racemic) [rac. N-(9-Ethyl-9H-carbazol-3-yl)-1-benzyl-5-oxopyrrolidine-3-carboxamide] | 7.49
CCN(c1ccccc1)c1ccc(NC(=O)C2CC(=O)N(c3cc(OC)ccc3C)C2)cc1 (racemic) [rac. N-[4-(Ethylphenylamino)phenyl]-1-(5-methoxy-2-methylphenyl)-5-oxopyrrolidine-3-carboxamide] | 7.52
CCN(c1ccc(NC(=O)C2CC(=O)N(c3cccc(OC)c3)C2)cc1)c1nc(C)cc(C)n1 (racemic) [rac. N-{4-[(4,6-Dimethylpyrimidin-2-yl)ethylamino]phenyl}-1-(3-methoxyphenyl)-5-oxopyrrolidine-3-carboxamide] | 7.36
CC(C)c1ccccc1N1CC(C(=O)Nc2ccc(N(CC3CC3)c3ccccc3)cc2)CC1=O (racemic) [rac. N-[4-(Cyclopropylmethylphenylamino)phenyl]-1-(2-isopropylphenyl)-5-oxopyrrolidine-3-carboxamide] | 7.33
CCN(c1ccccc1)c1ccc(NC(=O)C2CC(=O)N(C3Cc4ccccc4C3)C2)cc1 (racemic) [rac. N-[4-(Ethylphenylamino)phenyl]-1-indan-2-yl-5-oxopyrrolidine-3-carboxamide] | 7.31

Stronger by pIC50, values ahead:

pIC50 | Structure (SMILES)
7.70 | Cc1ccc(C)c(N2CC(C(=O)Nc3ccc(Nc4nc(C)cc(C)n4)cc3)CC2=O)c1 (racemic) [rac. N-[4-(4,6-Dimethylpyrimidin-2-ylamino)phenyl]-1-(2,5-dimethylphenyl)-5-oxopyrrolidine-3-carboxamide]
7.80 | CCN(CCO)c1ccc(NC(=O)C2CC(=O)N(c3cc(C)ccc3C)C2)cc1 (racemic) [rac. N-{4-[Ethyl-(2-hydroxyethyl)amino]phenyl}-1-(2,5-dimethylphenyl)-5-oxopyrrolidine-3-carboxamide]
7.92 | CCn1c2ccccc2c2cc(NC(=O)C3CC(=O)N(CCc4ccccc4)C3)ccc21 (racemic) [rac. N-(9-Ethyl-9H-carbazol-3-yl)-5-oxo-1-phenethylpyrrolidine-3-carboxamide]
8.00 | CCn1c2ccccc2c2cc(NC(=O)C3CC(=O)N(Cc4ccco4)C3)ccc21 (racemic) [rac. N-(9-Ethyl-9H-carbazol-3-yl)-1-furan-2-ylmethyl-5-oxopyrrolidine-3-carboxamide]
8.00 | CCn1c2ccccc2c2cc(NC(=O)C3CC(=O)N(CCN4CCOCC4)C3)ccc21 (racemic) [rac. N-(9-Ethyl-9H-carbazol-3-yl)-1-(2-morpholin-4-ylethyl)-5-oxopyrrolidine-3-carboxamide]
7.70 | CCn1c2ccccc2c2cc(NC(=O)C3CC(=O)N(Cc4ccc(OC)cc4OC)C3)ccc21 (racemic) [rac. N-(9-Ethyl-9H-carbazol-3-yl)-1-(2,4-dimethoxybenzyl)-5-oxopyrrolidine-3-carboxamide]
7.82 | CCN(c1ccc(NC(=O)C2CC(=O)N(c3cc(OC)ccc3C)C2)cc1)c1nc(C)cc(C)n1 (racemic) [rac. N-{4-[(4,6-Dimethylpyrimidin-2-yl)ethylamino]phenyl}-1-(5-methoxy-2-methylphenyl)-5-oxopyrrolidine-3-carboxamide]
7.70 | Cc1ccc(C)c(N2CC(C(=O)Nc3ccc(N(C)c4nc(C)cc(C)n4)cc3)CC2=O)c1 (racemic) [rac. N-{4-[(4,6-Dimethylpyrimidin-2-yl)methylamino]phenyl}-1-(2,5-dimethylphenyl)-5-oxopyrrolidine-3-carboxamide]
8.00 | CCn1c2ccccc2c2cc(NC(=O)C3CC(=O)N(c4cc(OC)ccc4C)C3)ccc21 (racemic) [rac. N-(9-Ethyl-9H-carbazol-3-yl)-1-(5-methoxy-2-methylphenyl)-5-oxopyrrolidine-3-carboxamide]
7.77 | CCN(c1ccccc1)c1ccc(NC(=O)C2CC(=O)N(c3cc(C)ccc3C)C2)cc1 (racemic) [rac. N-[4-(Ethylphenylamino)phenyl]-1-(2,5-dimethylphenyl)-5-oxopyrrolidine-3-carboxamide]
